# From ChEMBL document CHEMBL4219142, “Discovery of potent DOT1L inhibitors by AlphaLISA based High Throughput Screening assay” (Bioorg Med Chem, 2018)
# Tests used:
# MV4-11 [1] = test: Cell cycle arrest in human MV411 cells assessed as accumulation at G1 phase at 0.625 uM after 24 hrs by propidium iodide staining based flow cytometric analysis (reference value: 40.62 to 65.56%); format: functional
# MV4-11 [2] = test: Cell cycle arrest in human MV411 cells assessed as accumulation at S phase at 0.3125 uM after 24 hrs by propidium iodide staining based flow cytometric analysis (reference value: 30.25 to 47.5%); format: functional
# MV4-11 [3] = test: Cell cycle arrest in human MV411 cells assessed as accumulation at G1 phase at 1.25 uM after 24 hrs by propidium iodide staining based flow cytometric analysis (reference value: 40.62 to 65.56%); format: functional
# [4] = biological target: T1, Histone-lysine N-methyltransferase, H3 lysine-79 specific (Homo sapiens, UniProt Q8TEK3); test: Binding affinity to recombinant human His6-SUMO tagged DOT1L (1 to 416 residues) expressed in Escherichia coli BL21(DE3) by surface plasmon resonance method
# Target sequence in this assay (Q8TEK3 whole entry, the tested form may be a part): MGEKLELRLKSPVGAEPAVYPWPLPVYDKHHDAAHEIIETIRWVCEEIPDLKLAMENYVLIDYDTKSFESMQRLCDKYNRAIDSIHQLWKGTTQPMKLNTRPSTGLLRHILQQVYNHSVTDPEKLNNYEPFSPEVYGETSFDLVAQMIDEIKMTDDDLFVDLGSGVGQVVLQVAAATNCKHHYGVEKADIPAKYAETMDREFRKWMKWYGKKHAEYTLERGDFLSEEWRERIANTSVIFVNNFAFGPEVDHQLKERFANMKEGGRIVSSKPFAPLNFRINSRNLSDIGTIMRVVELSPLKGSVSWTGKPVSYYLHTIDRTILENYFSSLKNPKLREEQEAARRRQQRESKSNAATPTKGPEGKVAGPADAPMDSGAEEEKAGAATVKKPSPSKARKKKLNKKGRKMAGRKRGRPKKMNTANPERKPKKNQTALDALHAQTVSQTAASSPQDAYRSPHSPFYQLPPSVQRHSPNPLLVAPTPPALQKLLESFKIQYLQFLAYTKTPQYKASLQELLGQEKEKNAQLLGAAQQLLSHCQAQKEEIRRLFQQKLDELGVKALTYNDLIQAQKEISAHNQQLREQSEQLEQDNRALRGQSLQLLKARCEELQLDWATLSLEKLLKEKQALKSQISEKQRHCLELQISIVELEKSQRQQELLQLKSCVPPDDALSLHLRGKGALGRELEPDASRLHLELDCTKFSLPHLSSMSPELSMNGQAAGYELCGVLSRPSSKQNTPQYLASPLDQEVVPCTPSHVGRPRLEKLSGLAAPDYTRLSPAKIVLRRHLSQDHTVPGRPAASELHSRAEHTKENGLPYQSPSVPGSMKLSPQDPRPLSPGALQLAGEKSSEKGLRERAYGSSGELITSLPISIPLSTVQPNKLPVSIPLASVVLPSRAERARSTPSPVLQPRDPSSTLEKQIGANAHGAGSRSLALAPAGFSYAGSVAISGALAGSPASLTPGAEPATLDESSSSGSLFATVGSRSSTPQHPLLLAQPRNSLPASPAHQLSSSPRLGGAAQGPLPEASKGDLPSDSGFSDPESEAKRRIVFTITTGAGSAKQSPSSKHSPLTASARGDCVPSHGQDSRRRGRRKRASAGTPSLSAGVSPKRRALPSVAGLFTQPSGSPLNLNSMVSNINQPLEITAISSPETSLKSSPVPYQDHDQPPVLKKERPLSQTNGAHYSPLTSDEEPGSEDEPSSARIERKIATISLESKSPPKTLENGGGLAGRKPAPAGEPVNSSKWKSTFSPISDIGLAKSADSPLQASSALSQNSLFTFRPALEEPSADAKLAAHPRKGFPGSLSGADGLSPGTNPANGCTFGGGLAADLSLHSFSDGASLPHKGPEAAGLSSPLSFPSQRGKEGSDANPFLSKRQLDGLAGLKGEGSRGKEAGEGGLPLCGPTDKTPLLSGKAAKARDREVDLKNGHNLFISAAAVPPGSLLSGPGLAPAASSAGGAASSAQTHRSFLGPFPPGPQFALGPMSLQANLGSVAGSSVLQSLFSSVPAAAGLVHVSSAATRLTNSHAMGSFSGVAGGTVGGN
# MV4-11 [5] = test: Induction of apoptosis in human MV411 cells assessed as early apoptotic cells at 1.25 uM after 48 hrs by Annexin-V-FITC/propidium iodide staining based flow cytometric method (reference value: 1.15 to […]); format: functional
# MV4-11 [6] = test: Cell cycle arrest in human MV411 cells assessed as accumulation at G1 phase after 24 hrs by propidium iodide staining based flow cytometric analysis; format: functional
# MV4-11 [7] = test: Induction of apoptosis in human MV411 cells assessed as early apoptotic cells at 0.625 uM after 48 hrs by Annexin-V-FITC/propidium iodide staining based flow cytometric method (reference value: 1.15 to […]); format: functional
# MV4-11 [8] = test: Induction of apoptosis in human MV411 cells assessed as late apoptotic cells at 1.25 uM after 48 hrs by Annexin-V-FITC/propidium iodide staining based flow cytometric method (reference value: 4.38 to 4.63%); format: functional
# MV4-11 [9] = test: Induction of apoptosis in human MV411 cells assessed as late apoptotic cells at 0.3125 uM after 48 hrs by Annexin-V-FITC/propidium iodide staining based flow cytometric method (reference value: 4.38 to 4.63%); format: functional
# MV4-11 [10] = test: Induction of apoptosis in human MV411 cells assessed as necrotic cells at 0.625 uM after 48 hrs by Annexin-V-FITC/propidium iodide staining based flow cytometric method (Rvb <= 0.08%); format: functional
# MV4-11 [11] = test: Cell cycle arrest in human MV411 cells assessed as accumulation at G2 phase at 1.25 uM after 24 hrs by propidium iodide staining based flow cytometric analysis (reference value: 4.19 to 11.88%); format: functional
# [12] = biological target: T1, Histone-lysine N-methyltransferase, H3 lysine-79 specific; test: Inhibition of recombinant human His6-SUMO tagged DOT1L (1 to 416 residues) expressed in Escherichia coli BL21(DE3) using oligonucleosome as substrate pretreated for 15 mins followed by substrate addition measured after 60 mins in presence of [3H]SAM by liquid scintillation counting method
# Target sequence in this assay (Q8TEK3 whole entry, the tested form may be a part): as above
# MV4-11 [13] = test: Cell cycle arrest in human MV411 cells assessed as accumulation at G1 phase at 0.3125 uM after 24 hrs by propidium iodide staining based flow cytometric analysis (reference value: 40.62 to 65.56%); format: functional
# [14] = biological target: T1, Histone-lysine N-methyltransferase, H3 lysine-79 specific; test: Inhibition of recombinant human His6-SUMO tagged DOT1L (1 to 416 residues) expressed in Escherichia coli BL21(DE3) at 25 uM using oligonucleosome as substrate pretreated for 15 mins followed by substrate addition measured after 60 mins in presence of [3H]SAM by liquid scintillation counting method relative to control
# Target sequence in this assay (Q8TEK3 whole entry, looked up, the tested form may be a part): as the sequence (Q8TEK3 whole entry, the tested form may be a part) above
# MV4-11 [15] = test: Induction of apoptosis in human MV411 cells assessed as necrotic cells at 1.25 uM after 48 hrs by Annexin-V-FITC/propidium iodide staining based flow cytometric method (Rvb <= 0.08%); format: functional
# MV4-11 [16] = test: Induction of apoptosis in human MV411 cells assessed as necrotic cells at 0.3125 uM after 48 hrs by Annexin-V-FITC/propidium iodide staining based flow cytometric method (Rvb <= 0.08%); format: functional
# [17] = biological target: T1, Histone-lysine N-methyltransferase, H3 lysine-79 specific; test: Inhibition of recombinant human His6-SUMO tagged DOT1L (1 to 416 residues) expressed in Escherichia coli BL21(DE3) at 50 uM using oligonucleosome as substrate pretreated for 15 mins followed by substrate addition measured after 60 mins in presence of [3H]SAM by liquid scintillation counting method relative to control
# Target sequence in this assay (Q8TEK3 whole entry, looked up, the tested form may be a part): as the sequence (Q8TEK3 whole entry, the tested form may be a part) above
# MV4-11 [18] = test: Cell cycle arrest in human MV411 cells assessed as accumulation at S phase at 0.625 uM after 24 hrs by propidium iodide staining based flow cytometric analysis (reference value: 30.25 to 47.5%); format: functional
# MV4-11 [19] = test: Induction of apoptosis in human MV411 cells assessed as viable cells at 0.625 uM after 48 hrs by Annexin-V-FITC/propidium iodide staining based flow cytometric method (reference value: 88.5 to 94.5%); format: functional; settings: MV4-11, 48 h, read-out: Activity
# MV4-11 [20] = test: Induction of apoptosis in human MV411 cells assessed as late apoptotic cells at 0.625 uM after 48 hrs by Annexin-V-FITC/propidium iodide staining based flow cytometric method (reference value: 4.38 to 4.63%); format: functional
# MV4-11 [21] = test: Induction of apoptosis in human MV411 cells assessed as early apoptotic cells at 0.3125 uM after 48 hrs by Annexin-V-FITC/propidium iodide staining based flow cytometric method (reference value: 1.15 to […]); format: functional
# MV4-11 [22] = test: Cell cycle arrest in human MV411 cells assessed as accumulation at S phase at 1.25 uM after 24 hrs by propidium iodide staining based flow cytometric analysis (reference value: 30.25 to 47.5%); format: functional
# [23] = biological target: T1, Histone-lysine N-methyltransferase, H3 lysine-79 specific; test: Inhibition of recombinant human His6-SUMO tagged DOT1L (1 to 416 residues) expressed in Escherichia coli BL21(DE3) at 100 uM using oligonucleosome as substrate pretreated for 15 mins followed by substrate addition measured after 60 mins in presence of [3H]SAM by liquid scintillation counting method relative to control
# Target sequence in this assay (Q8TEK3 whole entry, looked up, the tested form may be a part): as the sequence (Q8TEK3 whole entry, the tested form may be a part) above
# MV4-11 [24] = test: Induction of apoptosis in human MV411 cells assessed as viable cells at 1.25 uM after 48 hrs by Annexin-V-FITC/propidium iodide staining based flow cytometric method (reference value: 88.5 to 94.5%); format: functional; settings: MV4-11, 48 h, read-out: Activity
# MV4-11 [25] = test: Induction of apoptosis in human MV411 cells assessed as viable cells at 0.3125 uM after 48 hrs by Annexin-V-FITC/propidium iodide staining based flow cytometric method (reference value: 88.5 to 94.5%); format: functional; settings: MV4-11, 48 h, read-out: Activity
# MV4-11 [26] = test: Antiproliferative activity against human MV411 cells after 72 hrs by Alamar blue assay; format: functional, cell-based; settings: MV4-11, 72 h
# MV4-11 [27] = test: Cell cycle arrest in human MV411 cells assessed as accumulation at G2 phase at 0.3125 uM after 24 hrs by propidium iodide staining based flow cytometric analysis (reference value: 4.19 to 11.88%); format: functional
# MV4-11 [28] = test: Cell cycle arrest in human MV411 cells assessed as accumulation at G2 phase at 0.625 uM after 24 hrs by propidium iodide staining based flow cytometric analysis (reference value: 4.19 to 11.88%); format: functional
smiles,measurement,setting,value
COc1ccccc1-c1nnc2sc(/C=C/c3ccco3)nn12,Activity,MV4-11 [1],57.22%
same,Activity,MV4-11 [2],37.51%
same,Activity,MV4-11 [3],58.01%
same,Kd,[4],7.08 µM
same,Activity,MV4-11 [5],44.1%
same,Activity,MV4-11 [6],Dose-dependent effect
same,Activity,MV4-11 [7],33.2%
same,Activity,MV4-11 [8],45.5%
same,Activity,MV4-11 [9],12%
same,Activity,MV4-11 [10],1.11%
same,Activity,MV4-11 [11],23.18%
same,IC50,[12],9.7 µM
same,Activity,MV4-11 [13],46.31%
same,inhibition,[14],62%
same,Activity,MV4-11 [15],0.91%
same,Activity,MV4-11 [16],0.72%
same,inhibition,[17],75%
same,Activity,MV4-11 [18],32.19%
same,viability at 0.625 µM,MV4-11 [19],30.4%
same,Activity,MV4-11 [20],35.3%
same,Activity,MV4-11 [21],13.7%
same,Activity,MV4-11 [22],18.51%
same,inhibition,[23],78%
same,viability at 1.25 µM,MV4-11 [24],9.46%
same,viability at 0.3125 µM,MV4-11 [25],73.6%
same,IC50,MV4-11 [26],1.07 µM
same,Activity,MV4-11 [27],16.17%
same,Activity,MV4-11 [28],10.59%
